In patent US20100249082A1, “MODULATORS OF HYPOXIA INDUCIBLE FACTOR-1 AND RELATED USES” (Bionaut Pharmaceuticals INC., priority 2007, published 2010):

Key:
[1] = target: Na^+, K^+-ATPase (Cricetulus griseus, UniProt A0A8C2N4Z0); experiment: cell-based
Procedure: (§1) Compounds were screened using Ion Channel Research (ICR) technology and a non-radioactive Rubidium Uptake Assay
(§2) For all the test compounds and standard blockers, 100× solutions were used to prepare 1× test doses for Na^+, K^+-ATPase screen in CHO cell line. The final DMSO concentration in each well was 1%.
(§3) • 1. […] Rb^+ Uptake: Cells were washed with 200 μl of Rb^+ Uptake Buffer once and R^+ loaded by application of 198 μl R^+ Uptake Buffer. Compounds were added at 2 μl/well of a 100× stock solution in 100% DMSO in the uptake buffer followed by incubation for 30 minutes at room temperature (c. 22° C.). The total volume in each well was 200 μl (198 μl of R^+ Uptake Buffer and 2 μl of the 100× compound). The 100× compound solution gets diluted in R^+ Uptake Buffer to 1× and the DMSO to 1%. • 3. Wash: Residual R^+ and compound were removed by four successive washes with 200 μl of SPA-Wash Buffer. • 4. Cell Lysis: Intracellular samples were obtained by whole cell lysis with the application of 200 μl Lysis Solution. • 5. Analysis: The level of R^+ in the intracellular samples was measured by ICR8000 (Aurora Biomed Inc., Vancouver, Canada). using flame atomic absorption spectroscopy.

[2] = tested on: Na^+, K^+-ATPase; experiment: cell-based; settings: for Inhibition (%) / Normalized Uptake (%): CHO-K1; for Sample Solubility: CHO-K1 screen test wells, 1% DMSO
Procedure: as §1, §2, §3

[3] = target: T1, Na^+, K^+-ATPase (Homo sapiens, UniProt P05023); experiment: cell-based; settings: for Rank order: HEK-293, ranked on potency (IC50 value)
T1 construct: The HEK-293 cell line endogenously expressing Na^+, K^+-ATPase; endogenous in cells; host or cells: HEK-293
Procedure: Cells were plated at a density of 50,000 cells/well in 96-well microplates and incubated at 37° C., 5% CO2 until 80-90% confluency was attained

[4] = Sample solubility noted in the rubidium uptake assay; format: physicochemical; settings: DMSO 1.0%
[5] = in vivo; cited from earlier work

SMILES | IC50 [1] [µM] | Inhibition (%) ([2]; dose 1.0 uM) | Normalized Uptake (%) ([2]; dose 1.0 uM) | Inhibition (%) ([2]; dose 5.0 uM) | Normalized Uptake (%) ([2]; dose 5.0 uM) | Inhibition (%) ([2]; dose 10 uM) | Normalized Uptake (%) ([2]; dose 10 uM) | Inhibition (%) ([2]; dose 50 uM) | Normalized Uptake (%) ([2]; dose 50 uM) | Inhibition (%) ([2]; dose 100 uM) | Normalized Uptake (%) ([2]; dose 100 uM) | Inhibition (%) ([2]; dose 200 uM) | Normalized Uptake (%) ([2]; dose 200 uM) | Inhibition (%) ([2]; dose 500 uM) | Normalized Uptake (%) ([2]; dose 500 uM) | Sample Solubility [2] | IC50 [3] [µM] | Rank order [3] | Inhibition (%) ([2]; dose 0.50 uM) | Normalized Uptake (%) ([2]; dose 0.50 uM) | other results
C[C@]12CCC(=NOCCCCN3CCCCC3)C=C1CCC1C2CC[C@]2(C)[C@@H](c3ccc(=O)oc3)CC[C@]12O (stereo partly shown) [BP247, 3-[4-(Piperidinobutoxy)imino]-scillarinone] | 47.4 | −0.3 | 96.2 | 9.2 | 88.2 | 15.2 | 83.2 | 44.9 | 58.3 | 67.7 | 39.0 | 89.0 | 21.1 | 100.0 | 11.9 | Good | 0.183 | 1 | – | – | inhibition at 0.5 µM ([1]; CHO-K1): 0%; remaining activity at 0.5 µM ([1]; CHO-K1, 0.5 h, read-out: Normalized Uptake (%)): 96%; inhibition at 0.01 µM ([3]; HEK293, HEK-293, dose 0.01 uM, Log[drug](M) −8.0): 0%; inhibition at 0.1 µM ([3]; HEK293, HEK-293, Log[drug](M) −7.0): 44.9%; inhibition at 0.1 µM ([3]; HEK293, HEK-293, Log[drug](M) −7.3): 17.1%; inhibition at 1 µM ([3]; HEK293, HEK-293, Log[drug](M) −6.0): 79.9%; inhibition at 1 µM ([3]; HEK293, HEK-293, Log[drug](M) −6.3): 68.4%; inhibition at 5 µM ([3]; HEK293, HEK-293, dose 5 uM, Log[drug](M) −5.3): 94.8%; inhibition at 10 µM ([3]; HEK293, HEK-293, dose 10 uM, Log[drug](M) −5.0): 93.5%; inhibition at 50 µM ([3]; HEK293, HEK-293, dose 50 uM, Log[drug](M) −4.3): 100%; Sample Solubility ([3]; HEK-293 screen test wells, 1% DMSO): Good
C[C@]12CCC(=NOCCN3CCC(Cc4ccccc4)CC3)C=C1CCC1C2CC[C@]2(C)[C@@H](c3ccc(=O)oc3)CC[C@]12O (stereo partly shown) [BP249, 3-[2-(4-Benzylpiperidinoethoxy)imino]-scillarinone] | 41.9 | 0.0 | 103.5 | 2.6 | 100.7 | 17.9 | 87.9 | 54.2 | 57.3 | 73.4 | 41.0 | 87.8 | 29.0 | 100.0 | 18.7 | Good | 5.53 | 4 | 0.6 | 103.0 | Sample Solubility [4]: Good
C[C@H]1O[C@@H](O[C@H]2[C@@H](O)C[C@H](O[C@H]3[C@@H](O)C[C@H](O[C@H]4CC[C@@]5(C)[C@H](CC[C@@H]6[C@@H]5CC[C@]5(C)[C@@H](C7=CC(=O)OC7)CC[C@]65O)C4)O[C@@H]3C)O[C@@H]2C)C[C@H](O)[C@@H]1O [Digitoxin, reference compound] | 44.9 | 6.2 | 93.8 | 8.6 | 91.4 | 19.8 | 80.2 | 51.9 | 48.1 | 76.8 | 23.2 | – | – | 89.7 | 10.3 | – | 1.1 | 2 | 0.0 | 100.0 | Inhibition (%) ([2]; dose 1000 uM): 100.0%; Normalized Uptake (%) ([2]; dose 1000 uM): 0.0%
C[C@@H]1O[C@@H](O[C@H]2C[C@@H](O)[C@]3(CO)[C@H]4[C@H](O)C[C@]5(C)[C@@H](C6=CC(=O)OC6)CC[C@]5(O)[C@@H]4CC[C@]3(O)C2)[C@H](O)[C@H](O)[C@H]1O [BNC1, ouabain] | – | – | – | – | – | – | – | – | – | – | – | – | – | – | – | – | – | – | – | – | max. plasma concentration [5]: about 0.03 μg/mL
